Data taken from EP2990408B1, “NOVEL WHITENING AGENT” (Nichirei Biosciences Inc., priority 2013, dated 2014).
Where two headings read alike, the source gives them in different places.

Legend:
[1] = Stability test in aqueous citrate buffer solution (reversed-phase HPLC quantification); format: physicochemical; details: for percentages of compounds remaining in the test solutions after storage: 3 weeks, 20 mM citrate buffer solution (pH 6.0), 0.1% (weight/volume)
Description: 3H2P phosphate monoester (1) (not according to the invention) and 3H2P phosphate bisester (2) (according to the invention) in the form of free acid were dissolved in a 20 mM citrate buffer solution (pH 6.0) to a concentration of 0.1% (weight/volume). The test solutions were stored at 4°C, 25°C, or 40°C for 3 weeks. 3H2P phosphate monoester (1) or 3H2P phosphate bisester (2) contained in the stored test solutions were quantitatively analyzed via reversed-phase HPLC (Inertsil® ODS-3, 5 µm, 4.6 × 250 mm, GL Sciences). For comparative example, the similar test was carried out in the manner described above with the use of 3H2P. […]

[2] = tested on: Mouse-derived B16 melanoma cells 4A5; assay: Test for melanin production inhibition; format: cell-based; details: for melanin amount relative to the melanin amount of the control group: concentration of 5 µg/ml, control group = 100, day 6 of culture; for melanin production inhibitory activity: concentrations of 1, 5, and 10 µg/ml, compared with 3H2P and arbutin, Fig. 1; for melanin production inhibitory activity, free acid compared with triethylamine salt: free acid (Fig. 1A) vs triethylamine salt (Fig. 1B)
Description: Mouse-derived B16 melanoma cells 4A5 (RIKEN) were seeded on a 6-well plate with the use of DMEM medium containing 10% FBS to a cell density of 5.0 × 10^4 cells/well (day 0 of culture), and culture was conducted at 37°C in the presence of 5% CO2 for 24 hours. On the following day, the cell-seeded medium was exchanged with a medium supplemented with the test compound at a given concentration (day 1 of culture). The medium was exchanged with a fresh medium every other day from day 2 and thereafter. The cells were recovered via treatment with trypsin on day 6 of culture, and melanin was extracted using an aqueous solution of 1 N sodium hydroxide. The absorbance of the melanin extract was measured at 405 nm, and the melanin amount was determined using a calibration curve prepared with the use of a melanin standard sample. In addition, the protein amount of the cells recovered in the manner described below was determined using the DC Protein Assay Kit (BIO-RAD) and employed as the cell count index. […] In the figure, the melanin amount and the cell count of test groups to which the test compounds had been added are represented relative to the measured melanin amount and cell count of the control group to which no test compound had been added (concentration: 0), which is designated as 100.

tyrosinase = assay: Test of tyrosinase activity inhibition (L-DOPA substrate, absorbance at 475 nm); format: biochemical; details: Fig. 2; for tyrosinase inhibitory activity compared with 3H2P: at the same concentration as 3H2P; for tyrosinase inhibitory activity: free acid, concentration of 0.1 to 0.5 mg/ml
Description: A solution of 6 mM L-DOPA, an aqueous solution of the test compound adjusted to a given concentration, and a phosphate buffer (pH 6.8) were mixed at a ratio of 2:2:1 by volume. The resulting substrate mixture (1.0 ml) was mixed with 0.2 ml of a solution of 0.017 mg/ml tyrosinase (Sigma), and the enzyme reaction was initiated at 37°C. The absorbance of the enzyme reaction solution was measured at 475 nm 0 and 3 minutes after the initiation of the reaction. The test group subjected to the enzyme reaction in the same manner described above, except that the test compound was not included, was designate as the blank test group. On the basis of the measured absorbance, the inhibition rate of tyrosinase activity was determined using the formula shown below. […] Inhibition rate of tyrosinase activity (%) = (1−(The difference in the absorbance of the test compound in the enzyme reaction solution between 0 minutes and 3 minutes after the initiation of the reaction)/(The difference in the absorbance of the blank in the enzyme reaction solution between 0 min and 3 min)) × 100 [formula]

stability in weak-acidic to neutral water, compared with non-phosphorylated 3H2P [1] | Structure (SMILES) | percentages of compounds remaining in the test solutions after storage ([1]; 4°C) [%] | percentages of compounds remaining in the test solutions after storage ([1]; 25°C) [%] | percentages of compounds remaining in the test solutions after storage ([1]; 40°C) [%] | stability in weak-acidic to neutral water, compared with non-phosphorylated 3H2P ([1]; summary in words of Table 1) | melanin amount relative to the melanin amount of the control group [2] | melanin production inhibitory activity [2] | melanin production inhibitory activity, free acid compared with triethylamine salt [2] | tyrosinase inhibitory activity compared with 3H2P (tyrosinase) | tyrosinase inhibitory activity (tyrosinase)
– | O=c1occcc1OP(=O)(O)Oc1cccoc1=O [3H2P phosphate bisester (2), 3-hydroxy-2-pyrone phosphate bisester] | 100 | 100 | 99.3 | remarkably improved stability | approximately 50% | slightly lower than that of 3H2P but equivalent to that of arbutin | approximately equivalent melanin production inhibitory activity | lower than the tyrosinase inhibitory activity of 3H2P | low tyrosinase inhibitory activity
remarkably improved stability | O=c1occcc1OP(=O)(O)O [3H2P phosphate monoester (1), 3-hydroxy-2-pyrone phosphate monoester] | – | – | – | – | approximately 50% | slightly lower than that of 3H2P but equivalent to that of arbutin | approximately equivalent melanin production inhibitory activity | lower than the tyrosinase inhibitory activity of 3H2P | low tyrosinase inhibitory activity
– | O=c1occcc1O [Compound 3H2P, 3-hydroxy-2-pyrone, reference compound] | 98.4 | 87.3 | 53.2 | – | – | – | – | – | –
